Test [1] can be described thus: Inhibition of IL6 induced adhesion of TPA treated human U-937 cells to human HT-29 cells at 1 uM pretreated with HT-29 for 1 hr followed by U-937 addition along with IL6 stimulation for 3 hrs by fluorescence based microplate reader assay relative to control. Format: functional. To be noted: time 4 hrs.
Test [2] relates to U-937. Kind of test: Inhibition of TNFalpha induced adhesion of TPA treated human U-937 cells to human HT-29 cells at 1 uM pretreated with HT-29 for 1 hr followed by U-937 addition along with TNFalpha stimulation for 3 hrs by fluorescence based microplate reader assay relative to control. Type of test: functional. The note with it: time 4 hrs.
For test [3], the system named is HT-29. Kind of test: Induction of apoptosis in human HT-29 cells assessed as early apoptotic cells at 10 uM incubated for 24 hrs by Annexin V FITC/PI staining based flow cytometry analysis ( Rvb = 0%). Format: functional. On the technique in general: Flow cytometry measures light scatter and fluorescence of single cells or particles in a stream.
In test [4] the test system is HT-29. The experiment in a line: Induction of apoptosis in human HT-29 cells assessed as necrotic cells at 5 uM incubated for 24 hrs by Annexin V FITC/PI staining based flow cytometry analysis ( Rvb = 0.2%). Type of test: functional.
Test [5] deals with U-937. Kind of test: Induction of apoptosis in human U-937 cells assessed as viable cells at 5 uM incubated for 24 hrs by Annexin V FITC/PI staining based flow cytometry analysis ( Rvb = 95.2 +/- 0.4%). Format: functional. The note with it: read-out: Activity.
The test system of test [6] is U-937. Kind of test: Induction of apoptosis in human U-937 cells assessed as late apoptotic cells at 5 uM incubated for 24 hrs by Annexin V FITC/PI staining based flow cytometry analysis ( Rvb = 4 +/- 0.2%). Type of test: functional.
Test [7] concerns HT-29. Kind of test: Induction of apoptosis in human HT-29 cells assessed as late apoptotic cells at 5 uM incubated for 24 hrs by Annexin V FITC/PI staining based flow cytometry analysis ( Rvb = 0.7%). Format: functional.
Test [8] has as its system HT-29. Kind of test: Induction of apoptosis in human HT-29 cells assessed as late apoptotic cells at 10 uM incubated for 24 hrs by Annexin V FITC/PI staining based flow cytometry analysis ( Rvb = 0.7%). Type of test: functional.
Test [9] concerns HT-29. The experiment in a line: Induction of apoptosis in human HT-29 cells assessed as necrotic cells at 10 uM incubated for 24 hrs by Annexin V FITC/PI staining based flow cytometry analysis ( Rvb = 0.2%). Format: functional.
Test [10] relates to U-937. Kind of test: Induction of apoptosis in human U-937 cells assessed as late apoptotic cells at 1 uM incubated for 24 hrs by Annexin V FITC/PI staining based flow cytometry analysis ( Rvb = 4 +/- 0.2%). Format: functional.
Test [11] concerns U-937. Kind of test: Induction of apoptosis in human U-937 cells assessed as necrotic cells at 10 uM incubated for 24 hrs by Annexin V FITC/PI staining based flow cytometry analysis( Rvb = 0.2 +/- 0.1%). Format: functional.
Test [12] has as its system U-937. The experiment in a line: Induction of apoptosis in human U-937 cells assessed as necrotic cells at 5 uM incubated for 24 hrs by Annexin V FITC/PI staining based flow cytometry analysis ( Rvb = 0.2 +/- 0.1%). Type of test: functional.
In test [13] the test system is HT-29. Kind of test: Induction of apoptosis in human HT-29 cells assessed as viable cells at 10 uM incubated for 24 hrs by Annexin V FITC/PI staining based flow cytometry analysis ( Rvb = 99 +/- 0.1%). Type of test: functional. To be noted: read-out: Activity.
In test [14] the test system is HT-29. Kind of test: Induction of apoptosis in human HT-29 cells assessed as viable cells at 5 uM incubated for 24 hrs by Annexin V FITC/PI staining based flow cytometry analysis ( Rvb = 99 +/- 0.1%). Format: functional. The note with it: read-out: Activity.
The subject of test [15] is HT-29. Kind of test: Induction of apoptosis in human HT-29 cells assessed as late apoptotic cells at 1 uM incubated for 24 hrs by Annexin V FITC/PI staining based flow cytometry analysis ( Rvb = 0.7%). Format: functional.
Test [16] deals with U-937. The experiment in a line: Induction of apoptosis in human U-937 cells assessed as viable cells at 10 uM incubated for 24 hrs by Annexin V FITC/PI staining based flow cytometry analysis ( Rvb = 95.2 +/- 0.4%). Format: functional. The note with it: read-out: Activity.
Test [17] deals with U-937. The experiment in a line: Induction of apoptosis in human U-937 cells assessed as early apoptotic cells at 5 uM incubated for 24 hrs by Annexin V FITC/PI staining based flow cytometry analysis ( Rvb = 0.6 +/- 0.1 %). Type of test: functional.
The test system of test [18] is U-937. Kind of test: Induction of apoptosis in human U-937 cells assessed as early apoptotic cells at 1 uM incubated for 24 hrs by Annexin V FITC/PI staining based flow cytometry analysis ( Rvb = 0.6 +/- 0.1 %). Format: functional.
Test [19] deals with HT-29. The experiment in a line: Mucosal healing effect in TNFalpha induced human HT-29 cells assessed as decrease in epithelial permeability by measuring reduced […] FITC-dextran 4 level at 0.1 to 10 uM pretreated for 3 hrs followed by TNFalpha addition and subsequent FD4 addition and measured after 2 hrs by fluorescence based assay. Type of test: functional, cell-based. The note with it: dose 0.1-10 µM, time 5.0 hrs.

The subject of test [20] is HT-29. The experiment in a line: Induction of apoptosis in human HT-29 cells assessed as early apoptotic cells at 1 uM incubated for 24 hrs by Annexin V FITC/PI staining based flow cytometry analysis ( Rvb = 0%). Type of test: functional.
Test [21] concerns U-937. The experiment in a line: Induction of apoptosis in human U-937 cells assessed as viable cells at 1 uM incubated for 24 hrs by Annexin V FITC/PI staining based flow cytometry analysis ( Rvb = 95.2 +/- 0.4%). Format: functional. The note with it: read-out: Activity.
The subject of test [22] is HT-29. Kind of test: Induction of apoptosis in human HT-29 cells assessed as early apoptotic cells at 5 uM incubated for 24 hrs by Annexin V FITC/PI staining based flow cytometry analysis ( Rvb = 0%). Type of test: functional.
Test [23] concerns U-937. Kind of test: Induction of apoptosis in human U-937 cells assessed as late apoptotic cells at 10 uM incubated for 24 hrs by Annexin V FITC/PI staining based flow cytometry analysis ( Rvb = 4 +/- 0.2%). Format: functional.
Test [24] has as its system HT-29. The experiment in a line: Induction of apoptosis in human HT-29 cells assessed as necrotic cells at 1 uM incubated for 24 hrs by Annexin V FITC/PI staining based flow cytometry analysis ( Rvb = 0.2%). Type of test: functional.
For test [25], the system named is HT-29. Kind of test: Mucosal healing effect in TNFalpha induced human HT-29 cells assessed as decrease in epithelial permeability by measuring reduced […] FITC-dextran 4 level at 10 uM pretreated with compound and G15 for 3 hrs followed by TNFalpha addition and subsequent FD4 addition and measured after 2 hrs by fluorescence based assay. Type of test: functional, cell-based. The note with it: time 5.0 hrs.

In test [26] the test system is U-937. The experiment in a line: Induction of apoptosis in human U-937 cells assessed as necrotic cells at 1 uM incubated for 24 hrs by Annexin V FITC/PI staining based flow cytometry analysis ( Rvb = 0.2 +/- 0.1%). Type of test: functional.
Test [27] deals with U-937. Kind of test: Induction of apoptosis in human U-937 cells assessed as early apoptotic cells at 10 uM incubated for 24 hrs by Annexin V FITC/PI staining based flow cytometry analysis ( Rvb = 0.6 +/- 0.1 %). Format: functional.
In test [28] the test system is HT-29. The experiment in a line: Induction of apoptosis in human HT-29 cells assessed as viable cells at 1 uM incubated for 24 hrs by Annexin V FITC/PI staining based flow cytometry analysis ( Rvb = 99 +/- 0.1%). Type of test: functional. To be noted: read-out: Activity.

Calls of active or inactive are those of the source. The rule behind the calls is not given here.

By inhibition is commonly meant the change of the read-out against control, counted positive when it falls.

Take `Cc1nc(NC(=O)c2ccc(C(C)(C)C)cc2)c(C)c(C)c1O`: the inhibition at 1 µM in test [1] turned out to be 29.4%.
On the same count and under the same terms, the same measure for `Cc1nc(NC(=O)c2cccs2)c(C)c(C)c1O`: 61.6%.
Regarding `Cc1nc(NC(=O)c2ccccc2)c(C)c(C)c1O`, the inhibition at 1 µM in test [1] came out at 44.1%.
With `Cc1nc(NC(=O)c2c(C)noc2C)c(C)c(C)c1O`, the results for the inhibition at 1 µM (in the test on U-937 [2]; in test [1]) were 85% and 74%, respectively.
Take `Cc1nc(NC(=O)c2c(-c3ccccc3)noc2C)c(C)c(C)c1O`: the inhibition at 1 µM with U-937 [2] was 18.8%; in test [1], 37.8%.
Consider `Cc1ccc(C(=O)Nc2nc(C)c(O)c(C)c2C)cc1F`, for which the results for the inhibition at 1 µM (with U-937 [2]; in test [1]) were 68.2% and 59.5%, respectively.
The like results for `Cc1nc(NC(=O)c2ccoc2)c(C)c(C)c1O` were, in that order, 60.3% and 54.1%.
For `Brc1cc2c(cc1[C@@H]1Nc3ccccc3[C@@H]3C=CC[C@@H]31)OCO2`, the Activity in the test with HT-29 [3] was determined as 2.4%; in the test with HT-29 [4], 1.6%; in the test with U-937 [6], 18.3%; in the test with HT-29 [7], 13.1%; with HT-29 [8] it was 17.1%; with HT-29 [9], 0.7%. Moreover, the Activity with U-937 [10] stood at 13.1%; with U-937 [11], 0.3%; with U-937 [12], 0.7%; in the test on HT-29 [15], 10.4%; in the test with U-937 [17], 6.5%; with U-937 [18] it was 6.8%. Further, the Activity with HT-29 [20] is reported as 1.6%; with HT-29 [22], 1%; with U-937 [23] it was 27.9%; with HT-29 [24] it was 1.6%; in the test on U-937 [26], 0.5%; in the test on U-937 [27], 6.2%. Besides, the viability at 5 µM was 74.6% with U-937 [5] and 84.2% in the test with HT-29 [14]. Further, the viability at 10 µM in the test with HT-29 [13] is 79.7%; in the test on U-937 [16] it was 65.7%. For the same compound, the outcome in the test on HT-29 [19] and in the test with HT-29 [25] was inactive. Further, the viability at 1 µM in the test with U-937 [21] was determined as 79.6%; in the test on HT-29 [28], 86.4%.
Regarding `COc1ccc(C(=O)Nc2nc(C)c(O)c(C)c2C)cc1`, the inhibition at 1 µM in test [1] is 6.5%.
For `Cc1nc(NC(=O)c2sc3ccccc3c2Cl)c(C)c(C)c1O`, the inhibition at 1 µM in [1] is 11.4%.
With `COc1ccc(C(=O)Nc2nc(C)c(O)c(C)c2C)c(OC)c1`, the inhibition at 1 µM in the test on U-937 [2] is 30.9%; in test [1] it was 19.1%.
In the same order, the values of `Cc1nc(NC(=O)c2ccccc2F)c(C)c(C)c1O` are 36.4% and 66.4%.
As for `Cc1nc(NC(=O)c2ccc(-c3cc(Cl)ccc3Cl)o2)c(C)c(C)c1O`, the inhibition at 1 µM in the test on U-937 [2] was 78.2%; in [1], 69.6%.
Consider `Cc1nc(NC(=O)c2cc3ccccc3s2)c(C)c(C)c1O`, for which the inhibition at 1 µM in test [1] turned out to be 27%.

Source of the values: ChEMBL document CHEMBL5523723, “G Protein-Coupled Estrogen Receptor-Mediated Anti-Inflammatory and Mucosal Healing Activity of a Trimethylpyridinol Analogue in Inflammatory Bowel Disease” (J Med Chem, 2024).
